Experimental findings from patent publication US20240100473A1, “CARBON DIOXIDE ABSORBER” (MITSUBISHI GAS CHEMICAL COMPANY, INC., priority 2021, published 2024) are described below.

Data set [1] is described as follows: Maximum carbon dioxide release temperature of amine compound (DSC). Particulars: amine compound with CO2 absorbed from air for 24 h; DSC 23 to 250° C., 10° C./min, nitrogen atmosphere. The format is physicochemical. The protocol:
The amine compound (A) is heated with carbon dioxide absorbed from 23° C. to 250° C. at 10° C./minute of a heating rate, and a temperature at which an endothermic amount associated with desorption of carbon dioxide reaches a maximum is measured, and this temperature is taken as the maximum carbon dioxide release temperature. Here, the amine compound (A) with carbon dioxide absorbed can be prepared, for example, by allowing 5 mmol of the amine compound (A) to stand in the air at 23° C. and 50% RH for 24 hours.
(Maximum Carbon Dioxide (CO2) Release Temperature of Amine Compound)
After the above evaluation of the absorbed amount of carbon dioxide from the air was completed, the amine compound was removed from the desiccator as the amine compound having carbon dioxide absorbed. The DSC measurement was performed on the amine compound with carbon dioxide absorbed as follows, to measure the maximum carbon dioxide release temperature of the amine compound. First, the differential scanning calorimetry was performed on the amine compound using the differential thermogravimetric analyzer (Product Name: DTG-60 produced by Shimadzu Corporation) under the conditions of 23 to 250° C. of a measurement temperature range, 10° C./min of the heating rate, and the nitrogen atmosphere. From the DSC curve obtained thereby, the temperature at which the endothermic amount associated with the desorption of carbon dioxide reached the maximum was calculated, and the temperature thereof was used as the maximum carbon dioxide release temperature of the amine compound.

The nature of data set [2]: Amine value of amine compound (JIS K7237-1995 titration). The format is physicochemical. Particulars: 0.1 g in 20 mL acetic acid, titrated with 0.1 N perchloric acid-acetic acid. The protocol: The amine value can be measured by the following method in accordance with JIS K7237-1995. • (1) Dissolving 0.1 g of the amine compound (A) in 20 mL of acetic acid. • (2) Calculating the amine value by titrating the solution obtained in the above (1) with the 0.1 N perchloric acid-acetic acid solution using the automatic potentiometric titrator (for example, AT-610 produced by Kyoto Electronics Manufacturing Co., Ltd.).
(Amine Value of Amine Compound)
The amine value was measured by the following measurement method in accordance with JIS K7237-1995. • (1) Dissolving 0.1 g of the amine compound in 20 mL of the acetic acid. • (2) Calculating the amine value by titrating the solution obtained in the above (1) with the 0.1 N perchloric acid-acetic acid solution using the automatic potentiometric titrator (AT-610 produced by Kyoto Electronics Manufacturing Co., Ltd.).

A short description of data set [3]: Evaluation of absorbed amount of carbon dioxide from air (desiccator). Particulars: 5 mmol amine compound in desiccator, air 23° C. and 50% RH, initial CO2 about 400 ppm, after 24 hours. Here is the method: (Evaluation of Absorbed Amount of Carbon Dioxide from Air)
A carbon dioxide concentration meter and a petri dish were placed inside an openable desiccator (Internal Dimension: 370 mm×260 mm×272 mm). The amine compound (5 mmol) was then added to the petri dish in the desiccator, a door was immediately closed, and the carbon dioxide concentration in the desiccator was measured over time for 24 hours under an air environment of 23° C. and 50% RH. The initial concentration of carbon dioxide was adjusted to about 400 ppm. Changes of the carbon dioxide concentration in the desiccator 24 hours after the amine compound was placed in the desiccator are shown in Table 1. Here, it is meant that the greater the change of the carbon dioxide concentration in the desiccator is, the greater the amount of the carbon dioxide absorbed by the carbon dioxide absorbent is.

A short description of data set [4]: Maximum endothermic temperature of amine compound (DSC). The class given is physicochemical. The following applies: DSC 23 to 350° C., 10° C./min, nitrogen atmosphere; volatilization of amine compound. Here is the method:
Heating the amine compound (A) from 23° C. to 350° C. at 10° C./minute of the heating rate, measuring a temperature at which an endothermic amount associated with the volatilization of the amine compound (A) reaches a maximum, and letting this temperature be the maximum endothermic temperature of the amine compound (A).
(Maximum Endothermic Temperature of Amine Compound)
DSC measurements were performed on the amine compounds used in Examples and Comparative Examples to measure the maximum endothermic temperature of the amine compounds as follows. First, a differential scanning calorimetry was performed on the amine compounds using a differential thermogravimetric analyzer (Product Name: DTG-60 produced by Shimadzu Corporation) under conditions of 23 to 350° C. of a measurement temperature range, 10° C./min of a heating rate, and a nitrogen atmosphere. From the DSC curve obtained thereby, the temperature at which the endothermic amount associated with the volatilization of the amine compound reached the maximum was calculated, and the temperature thereof was used as the maximum endothermic temperature of the amine compound.

A short description of data set [5]: Acid dissociation constant (pKa) by acid-base titration. The class given is physicochemical. Particulars: 0.2 g in 30 mL purified water, 25±2° C. The protocol:
In the present embodiments, the acid dissociation constant of the amine compound (A) is a value obtained by the following measurement method based on an acid-base titration method. • (1) Dissolving 0.2 g of the amine compound (A) in 30 mL of purified water. • (2) Calculating the acid dissociation constant (pKa) by titrating the solution obtained in the above (1) with 0.1 N perchloric acid-acetic acid solution using an automatic potentiometric titrator (for example, AT-610 produced by Kyoto Electronics Manufacturing Co., Ltd.).
(Acid Dissociation Constant (pKa) of Amine Compound)
The acid dissociation constant of the amine compound was determined by the following method. • (1) Dissolving 0.2 g of the amine compound in 30 mL of the purified water. • (2) Calculating the acid dissociation constant (pKa) by titrating the solution obtained in the above (1) with the 0.1 N perchloric acid-acetic acid solution using the automatic potentiometric titrator (AT-610 produced by Kyoto Electronics Manufacturing Co., Ltd.).
Still, let the temperature at the time of measurement be 25±2° C.

Take `NCc1cccc(CN)c1` [Comparative Example 1, Meta-xylylenediamine, reference compound]: the “Maximum CO2 Release Temperature” value in data set [1] is 135.5 °C. For the same molecule, the “Amine Value” in data set [2] is 824 mgKOH/g. The “Evaluation of CO2 Absorbed Amount: Changes of CO2 Concentration, 24h” value (from here on “Evaluation … Changes of CO2 Concentration, 24h”) in data set [3] stood at 329 ppm. For the same molecule, the “Maximum Endothermic Temperature” value in data set [4] worked out at 183.5 °C. The pKa (in general, the pH at which an ionisable group is half protonated) in data set [5] was 9.5.
Regarding `NCCNCCN` [Comparative Example 2, Diethylenetriamine, reference compound], the “Maximum CO2 Release Temperature” value in data set [1] is 127.8 °C. The “Amine Value” in data set [2] is given as 1632 mgKOH/g. The “Evaluation … Changes of CO2 Concentration, 24h” value in data set [3] stood at 300 ppm. Besides, in data set [4], the “Maximum Endothermic Temperature” value amounted to 127.8 °C. The same molecule registered a pKa in data set [5] of 9.7.
`NCC1CCC(CN)O1` (stereo not drawn) [Example 1, 2,5-bis(aminomethyl)tetrahydrofuran]: the “Maximum CO2 Release Temperature” value in data set [1] amounted to 80.3 °C. In data set [2], the “Amine Value” is given as 862 mgKOH/g. In addition, the “Evaluation … Changes of CO2 Concentration, 24h” value in data set [3] was found to be 300 ppm. The “Maximum Endothermic Temperature” value in data set [4] stood at 155.9 °C. Also, the pKa in data set [5] came out at 9.4.
Take `NCc1ccc(CN)o1` [Example 2, 2,5-bisaminomethylfuran]: the “Maximum CO2 Release Temperature” value in data set [1] worked out at 85.0 °C. Moreover, the “Amine Value” in data set [2] was found to be 890 mgKOH/g. Moreover, the “Evaluation … Changes of CO2 Concentration, 24h” value in data set [3] came out at 306 ppm. In addition, the “Maximum Endothermic Temperature” value in data set [4] came to 154.2 °C. In data set [5], the pKa amounted to 9.
In the same order, the values of `NCC1CCOCC1` [Example 3, 4-aminomethyltetrahydropyran] are 111.0 °C, 487 mgKOH/g, 389 ppm, 127.4 °C and 10.
For the molecule `NCCN1CCOCC1` [Example 4, 4-(2-aminoethyl)morpholine], the “Maximum CO2 Release Temperature” value in data set [1] was found to be 81.5 °C. In data set [2], the “Amine Value” came out at 862 mgKOH/g. The “Evaluation … Changes of CO2 Concentration, 24h” value in data set [3] was 400 ppm. Also, the “Maximum Endothermic Temperature” value in data set [4] worked out at 145.0 °C. In data set [5], this molecule registered a pKa of 10.1.
Turning to `NCc1cccs1` [Example 5, 2-thiophenemethylamine], the “Maximum CO2 Release Temperature” value in data set [1] was 83.6 °C. Further, the “Amine Value” in data set [2] is 496 mgKOH/g. Further, the “Evaluation … Changes of CO2 Concentration, 24h” value in data set [3] is recorded as 249 ppm. Moreover, the “Maximum Endothermic Temperature” value in data set [4] was found to be 140.1 °C. Besides, the pKa in data set [5] is 9.5.
On to `NCc1ccco1` [Example 6, Furfurylamine], for which the “Maximum CO2 Release Temperature” value in data set [1] is 66.7 °C. Besides, the “Amine Value” in data set [2] stood at 578 mgKOH/g. Besides, the “Evaluation … Changes of CO2 Concentration, 24h” value in data set [3] is reported as 188 ppm. Further, the “Maximum Endothermic Temperature” value in data set [4] worked out at 92.4 °C. For the same molecule, the pKa in data set [5] was determined as 9.2.
In the same order, the values of `Cc1ccc(CN)o1` [Example 7, 5-methylfurfurylamine] are 80.7 °C, 505 mgKOH/g, 226 ppm, 115.3 °C and 9.2.
